From US20100203634A1, “Inhibition of stem cell differentiation, enhancement of proliferation and selective induction of apoptosis by Wnt factors” (DeltaCell B.V., priority 2003, published 2010) come the findings set out here.

For assay [1], the system named is Wnt-signaling pathway in normal human fetal lung fibroblast cell line HFL-1. As to the kind of experiment: TopFlash/FopFlash reporter assay, HFL-1. The following applies: HFL-1, 20 hours. The assay is classed as cell-based. The protocol: Primary mouse fibroblasts isolated from E12.5 lung explants, the human epithelial lung carcinoma cell line A549 cells (ATCC CCL-185), the human epithelial lung adenocarcinoma cell line Calu-3 (ATCC_HTB-55) and the normal human fetal lung fibroblast cell line HFL-1 cells (ATCC—153) were cultured in 96-well plates and transfected with the TopFlash and FopFlash reporter constructs using lipofectamine 2000 according to the manufacturer's instructions. As an internal control for transfection efficiency, a constitutive renilla luciferase reporter (Promega) was cotransfected. The cells were transfected with the above-mentioned reporter constructs and simultaneously treated with different concentrations of Wnt3A for 20 hours, after which the cells were lysed and luciferase expression was measured using a Berthold luminometer for two seconds (V. Korinek et al., Mol. Cell. Biol. 18:1248-1256, 1998). […]
In order to analyze if Wnt3A is able to activate the Wnt signal-transduction pathway in humans, we stimulated three different cell lines from human origin with Wnt3A and measured the response with the TopFlash/FopFlash reporter assay. The three human lung-derived cell lines analyzed were the lung epithelial carcinoma cell line A549 (FIG. 9B), the normal lung fibroblast line HFL-1 (FIG. 9C), and the epithelial adenocarcinoma cell line calu-3 (FIG. 9D).
For orientation: Reporter assays use an easily measured gene product as a stand-in for the process of interest.

The subject of assay [2] is mesenchyme and epithelium of fetal lung explants. As to the kind of experiment: PCNA immunohistochemistry (proliferation) on lung explants. The assay is classed as cell-based, mouse. The protocol:
Detection of the PCNA epitopes was carried out by treating the sections with di-aminobenzidine (DAB) for 15 minutes.
The antibody against PCNA was purchased from Zymed Laboratories Inc. (cat nr. 18-0110). The secondary conjugate used was from Jackson Laboratories, Inc. (catalog nr. 115-056-062).

“Also recorded” adds a separate entry of the source.

As to Wnt3a, the TopFlash/FopFlash reporter response entry in assay [1] is reported as “respond to Wnt3A in a dosage-dependent manner; also recorded: strong induction of the Wnt-signaling pathway”. In addition, in assay [2] (500 ng/ml, two days), the “PCNA staining in the bronchial epithelium” value is “marked overall increase in the intensity and frequency of PCNA staining; also recorded: elevated PCNA staining”. Also, the “PCNA staining (proliferation) of epithelium and mesenchyme” value in assay [2] (1000 ng/ml, five days) is “the epithelium was still proliferating whereas most of the mesenchymal cells were inactive or dead; also recorded: strong reduction in proliferation of the mesenchyme versus the epithelium”. Moreover, the PCNA staining entry is listed as “reduces the PCNA staining below the control situation” in assay [2] (1000 ng/ml, two days); “completely negative” in assay [2] (2000 and 4000 ng/ml, two days). In addition, the “concentration at which proliferation is absent / inhibited” value in assay [2] (lung explants) is listed as “above 2000 ng/ml”.
